Measurements reported in patent US20240409585A1, “MACROCYCLIC IMMUNOMODULATORS” (priority 2021, published 2024).
Bridge positions count the residues as written; N and C are the ends. Square brackets hold non-standard residues; d marks the D form. Peptide text beside a SMILES is read from it. * marks the point of attachment. ξ: configuration not given here. Phe(4-CONH2) = NC(=O)c1ccc(C[C@H](N)C(=O)O)cc1; Phe(4-COOH) = N[C@@H](Cc1ccc(C(=O)O)cc1)C(=O)O; Bip = N[C@@H](Cc1ccc(-c2ccccc2)cc1)C(=O)O; Phe(3-Me) = Cc1cccc(C[C@H](N)C(=O)O)c1; Val(3-OH) = CC(C)(O)[C@H](N)C(=O)O; 4Pal = N[C@@H](Cc1ccncc1)C(=O)O; Cha = N[C@@H](CC1CCCCC1)C(=O)O; Cit = NC(=O)NCCC[C@H](N)C(=O)O; Ile(3ξ) = CCC(C)[C@H](N)C(=O)O; Thr(3ξ) = CC(O)[C@H](N)C(=O)O; Carboxymethyl = O=C(O)C*; NMeA = CN[C@@H](C)C(=O)O; Nle = CCCC[C@H](N)C(=O)O; dAbu = CC[C@@H](N)C(=O)O; Dab = NCC[C@H](N)C(=O)O; Piv = CC(C)(C)C(=O)*

molecular target: T1, PE-labeled human PD-L1-Ig binding to Jurkat cell line over-expressing human PD-1 (Jurkat-PD-1) (Homo sapiens, UniProt Q15116); assay: Jurkat-PD-1 Cell Binding High-Content Screening Assay (CBA): Method 1; conditions: Jurkat-hPD-1 cells, PE-labeled PD-L1-Ig 20 nM final; read-out: Jurkat HPDL1 PD1 IC50 (uM) (Method 1)
T1 construct: expressed in transfected cells; host or cells: Jurkat
T1 sequence (Q15116 25-288): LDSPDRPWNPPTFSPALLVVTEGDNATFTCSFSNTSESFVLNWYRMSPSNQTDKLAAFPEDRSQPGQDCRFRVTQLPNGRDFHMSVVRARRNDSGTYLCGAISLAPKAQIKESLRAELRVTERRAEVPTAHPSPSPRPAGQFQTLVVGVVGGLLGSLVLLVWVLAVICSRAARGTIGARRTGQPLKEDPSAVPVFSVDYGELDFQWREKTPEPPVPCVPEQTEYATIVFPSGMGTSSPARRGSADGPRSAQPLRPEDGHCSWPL

| IC50 [µM] | SMILES |
| --- | --- |
| 0.03 | Cc1cccc(C[C@@H]2NC(=O)[C@H](CC(=O)O)NC(=O)[C@H](Cc3ccc(OCC(=O)O)cc3)NC(=O)[C@H](Cc3ccncc3)NC(=O)CSC[C@@H](C(=O)N[C@@H](CCNC(=O)C(C)(C)C)C(N)=O)NC(=O)[C@H]([C@@H](C)O)NC(=O)[C@H](C(C)C)NC(=O)[C@H](CC3CCCCC3)NC(=O)[C@H](CCN)NC(=O)[C@@H](CC(C)C)NC(=O)[C@H](C)N(C)C(=O)[C@H](Cc3ccc(OCC(=O)O)cc3)NC(=O)[C@H](Cc3ccc(-c4ccccc4)cc3)NC(=O)[C@H](Cc3ccc(OCC(=O)O)cc3)NC2=O)c1 [Compound 1867] ({CH2CO}-[4Pal]Y(Carboxymethyl)D[Phe(3-Me)]Y(Carboxymethyl)[Bip]Y(Carboxymethyl)[NMeA][dL][Dab][Cha]VTC[Dab](Piv)-NH2; thioether N-14) |
| 0.02 | CC(C)C[C@@H]1NC(=O)[C@H](Cc2c[nH]c3ccccc23)NC(=O)[C@H](CC(=O)O)NC(=O)[C@H](Cc2ccc(O)cc2)NC(=O)[C@H](Cc2ccccc2)NC(=O)CSC[C@@H](C(=O)NCC(N)=O)NC(=O)[C@H](CO)NC(=O)[C@H](C(C)C)NC(=O)[C@H](CC(C)C)NC(=O)[C@H](CC(N)=O)NC(=O)[C@@H](CC(C)C)NC(=O)[C@H](C)N(C)C(=O)[C@H](CCCNC(N)=O)NC(=O)[C@H](Cc2ccc(-c3ccccc3)cc2)NC1=O [Compound 1509] ({CH2CO}-FYDWL[Bip][Cit][NMeA][dL]NLVSCG-NH2; thioether N-14) |
| 0.04 | CC(C)C[C@@H]1NC(=O)[C@H](CCN)NC(=O)[C@@H](CC(C)C)NC(=O)[C@H](C)N(C)C(=O)[C@H](CCCNC(N)=O)NC(=O)[C@H](Cc2ccc(-c3ccccc3)cc2)NC(=O)[C@H](C(C)C)NC(=O)[C@H](Cc2c[nH]c3ccccc23)NC(=O)[C@H](CC(=O)O)NC(=O)[C@H](Cc2ccc(OCC(=O)O)cc2)NC(=O)[C@H](Cc2ccc(OCC(=O)O)cc2)NC(=O)CSC[C@@H](C(=O)N[C@@H](C)C(N)=O)NC(=O)[C@H]([C@@H](C)O)NC(=O)[C@H](C(C)C)NC1=O [Compound 1569] ({CH2CO}-Y(Carboxymethyl)Y(Carboxymethyl)DWV[Bip][Cit][NMeA][dL][Dab]LVTCA-NH2; thioether N-14) |
| 0.06 | CC(C)C[C@@H]1NC(=O)[C@H](Cc2c[nH]c3ccccc23)NC(=O)[C@H](CC(=O)O)NC(=O)[C@H](Cc2ccc(OCC(=O)O)cc2)NC(=O)[C@H](Cc2ccccc2)NC(=O)CSC[C@@H](C(N)=O)NC(=O)[C@H](CO)NC(=O)[C@H](C(C)C)NC(=O)[C@H](CC(C)C)NC(=O)[C@H](CC(N)=O)NC(=O)[C@@H](CC(C)C)NC(=O)[C@H](C)N(C)C(=O)[C@H](CCCNC(N)=O)NC(=O)[C@H](Cc2ccc(-c3ccccc3)cc2)NC1=O [Compound 1627] ({CH2CO}-FY(Carboxymethyl)DWL[Bip][Cit][NMeA][dL]NLVSC-NH2; thioether N-14) |

Further lines, the molecule ahead of its results:

| SMILES | IC50 [µM] |
| --- | --- |
| CCCC[C@@H]1NC(=O)[C@H](CCCNC(=N)N)NC(=O)[C@@H](CC(C)C)NC(=O)[C@H](C)N(C)C(=O)[C@H](CCCNC(=N)N)NC(=O)[C@H](Cc2ccc(-c3ccccc3)cc2)NC(=O)[C@H](C(C)C)NC(=O)[C@H](Cc2c[nH]c3ccccc23)NC(=O)[C@H](CC(=O)O)NC(=O)[C@H](Cc2ccc(O)cc2)NC(=O)[C@H](CC(N)=O)NC(=O)CSC[C@@H](C(=O)N[C@@H](C)C(N)=O)NC(=O)[C@H]([C@@H](C)O)NC(=O)[C@H](C(C)C)NC1=O [Compound 1282] ({CH2CO}-NYDWV[Bip]R[NMeA][dL]R[Nle]VTCA-NH2; thioether N-14) | 0.13 |
| CC(C)C[C@@H]1NC(=O)[C@H](CCCNC(=N)N)NC(=O)[C@@H](CC(C)C)NC(=O)[C@H](C)N(C)C(=O)[C@H](CCCNC(=N)N)NC(=O)[C@H](Cc2ccc(-c3ccccc3)cc2)NC(=O)[C@H](C(C)C)NC(=O)[C@H](Cc2c[nH]c3ccccc23)NC(=O)[C@H](CC(=O)O)NC(=O)[C@H](Cc2ccc(O)cc2)NC(=O)[C@H](CCC(N)=O)NC(=O)CSC[C@@H](C(=O)N[C@@H](C)C(N)=O)NC(=O)[C@H]([C@@H](C)O)NC(=O)[C@H](C(C)C)NC1=O [Compound 1046] ({CH2CO}-QYDWV[Bip]R[NMeA][dL]RLVTCA-NH2; thioether N-14) | 0.1 |
| Cc1cccc(C[C@@H]2NC(=O)[C@H](CC(=O)O)NC(=O)[C@H](Cc3ccc(C(N)=O)cc3)NC(=O)[C@H](Cc3ccncc3)NC(=O)CSC[C@@H](C(=O)N[C@@H](CCN)C(N)=O)NC(=O)[C@H](CO)NC(=O)[C@H](C(C)(C)O)NC(=O)[C@H](CC3CCCCC3)NC(=O)[C@H](CCN)NC(=O)[C@@H](CC(C)C)NC(=O)[C@H](C)N(C)C(=O)[C@H](Cc3ccc(OCC(=O)O)cc3)NC(=O)[C@H](Cc3ccc(-c4ccccc4)cc3)NC(=O)[C@H](Cc3ccc(OCC(=O)O)cc3)NC2=O)c1 [Compound 2138] ({CH2CO}-[4Pal][Phe(4-CONH2)]D[Phe(3-Me)]Y(Carboxymethyl)[Bip]Y(Carboxymethyl)[NMeA][dL][Dab][Cha][Val(3-OH)]SC[Dab]-NH2; thioether N-14) | 0.03 |
| CCC(C)[C@@H]1NC(=O)[C@H](Cc2ccc(-c3ccccc3)cc2)NC(=O)[C@H](C(C)C)NC(=O)[C@H](Cc2c[nH]c3ccccc23)NC(=O)[C@H](CC(=O)O)NC(=O)[C@H](Cc2ccc(O)cc2)NC(=O)[C@H](CCN)NC(=O)CSC[C@@H](C(=O)N[C@H](C(N)=O)C(C)C)NC(=O)[C@H](C(C)O)NC(=O)[C@H](C(C)(C)O)NC(=O)[C@H](CC2CCCCC2)NC(=O)[C@H](CC(N)=O)NC(=O)[C@@H](CC(C)C)NC(=O)[C@H](C)N(C)C1=O (stereo partly drawn) [Compound 2173] ({CH2CO}-[Dab]YDWV[Bip][Ile(3ξ)][NMeA][dL]N[Cha][Val(3-OH)][Thr(3ξ)]CV-NH2; thioether N-14) | 0.19 |
| CC[C@H]1NC(=O)[C@H](C)N(C)C(=O)[C@H](CCCNC(=N)N)NC(=O)[C@H](Cc2ccc(-c3ccccc3)cc2)NC(=O)[C@H](C(C)C)NC(=O)[C@H](Cc2c[nH]c3ccccc23)NC(=O)[C@H](CC(=O)O)NC(=O)[C@H](Cc2ccc(O)cc2)NC(=O)[C@H](Cc2ccccc2)NC(=O)CSC[C@@H](C(=O)N[C@@H](C)C(N)=O)NC(=O)[C@H]([C@@H](C)O)NC(=O)[C@H](C(C)C)NC(=O)[C@H](CC(C)C)NC(=O)[C@H](CCCNC(=N)N)NC1=O [Compound 1069] ({CH2CO}-FYDWV[Bip]R[NMeA][dAbu]RLVTCA-NH2; thioether N-14) | 0.22 |
| CC(C)C[C@@H]1NC(=O)[C@H](Cc2c[nH]c3ccccc23)NC(=O)[C@H](CC(=O)O)NC(=O)[C@H](Cc2ccc(C(=O)O)cc2)NC(=O)[C@H](CC(N)=O)NC(=O)CSC[C@@H](C(=O)N[C@@H](C)C(N)=O)NC(=O)[C@H](CO)NC(=O)[C@H](C(C)C)NC(=O)[C@H](CC(C)C)NC(=O)[C@H](CC(N)=O)NC(=O)[C@@H](C)NC(=O)[C@H](C)N(C)C(=O)[C@H](C(C)C)NC(=O)[C@H](Cc2ccc(-c3ccccc3)cc2)NC1=O [Compound 1754] ({CH2CO}-N[Phe(4-COOH)]DWL[Bip]V[NMeA][dA]NLVSCA-NH2; thioether N-14) | 0.03 |
| CC(C)C[C@@H]1NC(=O)[C@H](CCCNC(=N)N)NC(=O)[C@@H](CC(C)C)NC(=O)[C@H](C)N(C)C(=O)[C@H](C(C)C)NC(=O)[C@H](Cc2ccc(-c3ccccc3)cc2)NC(=O)[C@H](C(C)C)NC(=O)[C@H](Cc2c[nH]c3ccccc23)NC(=O)[C@H](CC(=O)O)NC(=O)[C@H](Cc2ccc(O)cc2)NC(=O)[C@H](Cc2ccccc2)NC(=O)CSC[C@@H](C(=O)N[C@@H](C)C(N)=O)NC(=O)[C@H](CO)NC(=O)[C@H](C(C)C)NC1=O [Compound 1770] ({CH2CO}-FYDWV[Bip]V[NMeA][dL]RLVSCA-NH2; thioether N-14) | 0.04 |
